# Entries after “also recorded” stand apart in the source; their conditions may differ.
# What was measured:
# CD44 high CD8+ T cells = assay: Cell proliferation by 3H uptake in vitro, CD44 high cells; type: cell-based, mice; conditions: SPD 0.2 μM, 24 hours
# Method: (§1) FIG. 4 CD8^+ T cells were isolated from the spleen of mice without tumor inoculation, and further isolated into CD44^+ (CD44 high) and CD44^− (CD44 low) cell populations. a) CD44 low cells were simulated with CD3/CD28 antibody beads and SPD (0.2 μM). After 30 minutes, 1 hour, 2 hours and 72 hours, OCR was measured with a Seahorse analyzer. b) At the same time, total ATP production and glycolytic pathway-derived or mitochondrial activity-derived ATP production were calculated at 30-minute, 1-hour and 2-hour. c) CD44 low cells (2×10^5 cells) were stimulated with CD3/CD28 antibody beads and SPD (0.2 μM). After 24 hours, cell proliferation was examined by means of 3H uptake. d) Spare respiratory capacity (SRC) was calculated from the OCR measurement after 72 hours in a), and results with and without SPD were compared. e) CD44 low cells were stimulated with CD3/CD28 antibody beads and SPD (0.2 μM). After 24 hours, frequencies between apoptotic and viable cells were calculated by PI and Annexin staining. f-j) CD44 high cells were analyzed under the same conditions and by the same methods as described in a-e) above. As regards statistical analysis, t-test was used for comparison of two groups, and ANOVA was used for comparison of three or more groups. * p<0.05, ** p<0.01, *** p<0.001, **** p<0.0001.
# AMPK and mTOR signaling [1] = assay: Western blotting of AMPK and mTOR signaling, CD44 low cells; type: cell-based, mice; conditions: presence or absence of SPD 0.2 μM, 1 hour and 2 hours
# Method: (§2) FIG. 5 CD8^+ T cells were isolated from the spleen of mice without tumor inoculation, and further isolated into CD44^+ (CD44 high) and CD44^− (CD44 low) cell populations. a) CD44 low cells were simulated with CD3/CD28 antibody beads and SPD (0.2 μM). […] Protein expression levels after 1 hour and 2 hours were confirmed by western blotting with the respective indicated antibodies. As regards statistical analysis, t-test was used for comparison of two groups. * p<0.05, ** p<0.01, *** p<0.001, **** p<0.0001.
# (§3) CD8^+ T cells were isolated using mouse CD8 Microbeads (Miltenyi Biotec or Mojo). After washing with PBS twice, 2×10^6 cells were solubilized in a lysis buffer containing 30 mM Tris-HCl (pH. 7.4), 150 mM NaCl, 10% glycerol, 0.1% SDS, 1% Triton-X-100, 0.05% Na-Doc, 5 mM EDTA (pH. 8.0), protease inhibitor mixture (Roche Molecular Biochemicals) and phosphatase inhibitors (Nacalai Tesque). After measurement of protein concentrations by DC protein assay (Bio-Rad), 4 μg of proteins was mounted on 4 to 20% gradient Mini-PROTEAN TGX Gels (Bio-Rad) and electroblotted onto nitrocellulose membranes, which were then incubated in a blocking buffer of TBS containing 1% BSA. Primary antibody incubations were carried out overnight at 4° C. in blocking buffer. After washing, secondary antibody incubations were carried out at room temperature for 40 min in blocking buffer. […]
# T cells = assay: Function of oxidative phosphorylation in T cells (OCR, Seahorse); type: cell-based
# Method: The function of oxidative phosphorylation in T cells may be measured as described below. Briefly, the oxygen consumption rate (OCR) of T cells is measured with an extracellular flux analyzer (Seahorse). Baseline OCR and the OCR for the case where carbonyl cyanide-4 (trifluoromethoxy) phenylhydrazone (FCCP), or a reagent that is activated to the maximum extent upon addition of a mitochondrial function terminating agent (oligomycin, Antimycine A/Rotenone: A/R), is added are compared and calculated (Divakaruni A S, Paradyse A, Ferrick D A, Murphy A N, Jastroch M. 2014. Analysis and Interpretation of Microplate-Based Oxygen Consumption and pH data. In Methods in Enzymology, Volume 547, Chapter 16, 309-354).
# If, in the above-described measurement method, baseline OCR is increased, spare respiratory capacity (SRC) is increased, or mitochondrial ATP production rate (mitoATP) is increased, it may well be concluded that the function of oxidative phosphorylation in T cells has increased.
# [2] = tested on: draining lymph node CD8+ T cells; assay: Mitochondria-related proteomics of draining lymph node CD8+ T cells of treated mice; type: in vivo
# Method: T cells were prepared by two methods. For in vivo analysis, 13 days after tumor inoculation and 3 days after the start of therapy, draining lymph nodes from 5 mice were pooled, followed by isolation of CD8^+ T cells. From the isolated CD8^+ T cells, three samples each consisting of 1×10^6 cells were prepared and used for analysis. For in vitro experiments, 2×10^5 CD8^+ T cells stimulated with 0.2 μM spermidine for 1 hour were used. For mass spectrometry analysis, a Tandem Mass Tag (TMT) system or a Data Independent Acquisition (DIA) system was used. In the analysis of in vivo CD8^+ T cells (FIG. 3), those proteins which increased by 1.5-fold or more or decreased by 0.6-fold or less were extracted.
# CD44 low CD8+ T cells = assay: Seahorse OCR, ATP production and SRC in vitro, CD44 low cells; type: cell-based, mice; conditions: SPD 0.2 μM
# Method: as §1
# Oxygen consumption rates were measured using an XF96 Extracellular Flux Analyzer (Seahorse Bioscience). CD8^+ T cells (4×10^5) per well were seeded in a determined XF96 plate. The four chemical modulators of mitochondrial oxidative phosphorylation, which came with an XF Cell Mito Stress Test Kit (Seahorse Bioscience), were added to the module sequentially. In brief, basal OCR measurement was performed […] sequential addition of oligomycin, FCCP, and rotenone/antimycin A. SRC and ATP production rates were calculated by the following formulas:
# SRC (pmo; 02/min)=OCRmaximal−OCRbasal
# mitoATP (pmol ATP/min)=(OCRbasal−OCRoligo)×5.5.
# AMPK and mTOR signaling [3] = assay: Western blotting of AMPK and mTOR signaling, CD44 high cells; type: cell-based, mice; conditions: SPD 0.2 μM, 1 hour and 2 hours
# Method: as §2, §3
compound,measurement,setting,value
"NCCCCNCCCN [SPD, spermidine]",cell proliferation,CD44 high CD8+ T cells,not found to increase
same,AMPK and mTOR signaling,AMPK and mTOR signaling [1],did not cause much difference
same,function of oxidative phosphorylation in T cells,T cells,increased
same,"levels of electron transport chain related proteins (Cytochrome, NADH dehydrogenase, ATPase)",[2]; combined therapy compared to PD-1 inhibition alone,remarkably increased
same,number of mitochondria-related proteins whose level changed significantly,"[2]; out of 203 proteins, combined therapy compared to PD-1 inhibition alone",184
same,pathway analysis: proteins associated with oxidative phosphorylation and metabolic pathways such as glycolysis,[2]; proteins increased under combined therapy,occupied top positions
same,mitochondrial oxygen consumption (OCR),"CD44 low CD8+ T cells; 30 minutes, 1 hour, 2 hours and 72 hours after stimulation",increased
same,ATP production via glycolytic pathway (glyco ATP),CD44 low CD8+ T cells; 1 hour after stimulation,significantly high
same,ATP production via intramitochondrial pathway (mito ATP),CD44 low CD8+ T cells; 1 hour after stimulation,significantly high
same,spare respiratory capacity (SRC),CD44 low CD8+ T cells; 72 hours,enhanced; also recorded: significantly high
same,"expression levels of pAMPK and its downstream molecules (pACC, pPKCa)",AMPK and mTOR signaling [3],markedly high
